Experimental data taken from ChEMBL document CHEMBL1201862, “PubChem BioAssay data set” (2004).
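All cell lines were grown in 96-well plates and treated with compound for 48 hours. Abbreviation: GI50, concentration required for 50% inhibition of growth.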 Activity calls are given as the source filed them. No stated cut-off is given here; in the data, active = GI50 up to about 1.1 µM and inactive = higher.

How the values were obtained:
Assay in all cases: inhibition of tumour cell growth, NCI panel, 48 h
OVCAR-4 = test system: OVCAR-4
NCI-H522 = test system: NCI-H522
SW-620 = test system: SW-620
CAKI-1 = test system: CAKI-1
SR = test system: SR
Malme-3M = test system: Malme-3M
MOLT-4 = test system: MOLT-4
ACHN = test system: ACHN
HCT-116 = test system: HCT-116
SNB-75 = test system: SNB-75
MDA-MB-435 = test system: MDA-MB-435
HT-29 = test system: HT-29
NCI-H226 = test system: NCI-H226
TK-10 = test system: TK-10
A498 = test system: A498
LOX IMVI = test system: LOX IMVI
HCT-15 = test system: HCT-15
K562 = test system: K562
SN12C = test system: SN12C
SK-MEL-5 = test system: SK-MEL-5
U-251 = test system: U-251
T47D = test system: T47D
SF-268 = test system: SF-268
CCRF-CEM = test system: CCRF-CEM
A549 = test system: A549
IGROV-1 = test system: IGROV-1
UACC-257 = test system: UACC-257
UACC-62 = test system: UACC-62
HCC 2998 = test system: HCC 2998
SK-MEL-2 = test system: SK-MEL-2
BT-549 = test system: BT-549
OVCAR-8 = test system: OVCAR-8
M14 = test system: M14
SNB-19 = test system: SNB-19
HOP-92 = test system: HOP-92
SK-OV-3 = test system: SK-OV-3
OVCAR-3 = test system: OVCAR-3
UO-31 = test system: UO-31
HL-60 = test system: HL-60
SF-295 = test system: SF-295
SF-539 = test system: SF-539
MCF7 = test system: MCF7
Hs-578T = test system: Hs-578T
DU-145 = test system: DU-145
MDA-MB-231 = test system: MDA-MB-231
HOP-62 = test system: HOP-62
SK-MEL-28 = test system: SK-MEL-28
PC-3 = test system: PC-3
EKVX = test system: EKVX
786-0 = test system: 786-0
NCI-H460 = test system: NCI-H460
MDA-N = test system: MDA-N
OVCAR-5 = test system: OVCAR-5
RXF 393 = test system: RXF 393
RPMI-8226 = test system: RPMI-8226
NCI/ADR-RES = test system: NCI/ADR-RES
KM12 = test system: KM12
NCI-H23 = test system: NCI-H23
COLO 205 = test system: COLO 205

What does the source list for CCOc1cc(NC(C)=O)ccc1C(=O)NNC(=O)c1ccccc1OC(C)=O?
GI50 (OVCAR-4): 4.32 µM (inactive); GI50 (NCI-H522): 5.83 µM (inactive); GI50 (SW-620): 4.01 µM (inactive); GI50 (CAKI-1): 3.21 µM (inactive); GI50 (SR): 1.05 µM (active); GI50 (Malme-3M): 21.7 µM (inactive); GI50 (MOLT-4): 995 nM (active); GI50 (ACHN): 3.79 µM (inactive); GI50 (HCT-116): 3.59 µM (inactive); GI50 (SNB-75): 8.05 µM (inactive); GI50 (MDA-MB-435): 15 µM (inactive); GI50 (HT-29): 34 µM (inactive); GI50 (NCI-H226): 5.19 µM (inactive); GI50 (TK-10): 1.5 µM (inactive); GI50 (A498): 16.1 µM (inactive); GI50 (LOX IMVI): 5.45 µM (inactive); GI50 (HCT-15): 4370 nM; GI50 (K562): 3.02 µM (inactive); GI50 (SN12C): 5.24 µM (inactive); GI50 (SK-MEL-5): 5.78 µM (inactive); GI50 (U-251): 4.69 µM (inactive); GI50 (T47D): 8.55 µM (inactive); GI50 (SF-268): 7.24 µM (inactive); GI50 (CCRF-CEM): 4.22 µM (inactive); GI50 (A549): 6.76 µM (inactive); GI50 (IGROV-1): 3.03 µM (inactive); GI50 (UACC-257): 4.92 µM (inactive); GI50 (UACC-62): 8.36 µM (inactive); GI50 (HCC 2998): 4.95 µM (inactive); GI50 (SK-MEL-2): 24.3 µM (inactive); GI50 (BT-549): 19.5 µM (inactive); GI50 (OVCAR-8): 6.3 µM (inactive); GI50 (M14): 7.18 µM (inactive); GI50 (SNB-19): 21.9 µM (inactive); GI50 (HOP-92): 29.9 µM (inactive); GI50 (SK-OV-3): 11.8 µM (inactive); GI50 (OVCAR-3): 3.24 µM (inactive); GI50 (UO-31): 3.86 µM (inactive); GI50 (HL-60): 4.28 µM (inactive); GI50 (SF-295): 8.36 µM (inactive); GI50 (SF-539): 12.5 µM (inactive); GI50 (MCF7): 6.07 µM (inactive); GI50 (Hs-578T): > 52 µM (inactive); GI50 (DU-145): 8.28 µM (inactive); GI50 (MDA-MB-231): 4.42 µM (inactive); GI50 (HOP-62): 8.61 µM (inactive); GI50 (SK-MEL-28): 21.5 µM (inactive); GI50 (PC-3): 11.1 µM (inactive); GI50 (EKVX): 5.18 µM (inactive); GI50 (786-0): 4.53 µM (inactive); GI50 (NCI-H460): 4.04 µM (inactive); GI50 (MDA-N): 12.5 µM (inactive); GI50 (OVCAR-5): 10.2 µM (inactive); GI50 (RXF 393): 3.41 µM (inactive); GI50 (RPMI-8226): 3 µM (inactive); GI50 (NCI/ADR-RES): 17.7 µM (inactive); GI50 (KM12): 7.08 µM (inactive); GI50 (NCI-H23): 18 µM (inactive); GI50 (COLO 205): 21.5 µM (inactive)

With N=C(N)N/N=C(\c1ccc(F)cc1)c1ccc(C(F)(F)F)cc1 as the compound, how does the GI50 (OVCAR-4) read?
Its GI50 is 1.1 µM (active).

What about the GI50 (NCI-H522) of the same compound?
Its GI50 is 0.135 µM (active).

And the GI50 (SW-620)?
Its GI50 is 0.254 µM (active).

And the GI50 (CAKI-1)?
The GI50 was 0.451 µM (active).

What about the GI50 (SR) of the same compound?
Its GI50 is 0.284 µM (active).

What about the GI50 (Malme-3M) of the same compound?
Its GI50 is 0.851 µM (active).

What about the GI50 (MOLT-4) of the same compound?
The GI50 was 358 nM (active).

And the GI50 (ACHN)?
The GI50 was 0.611 µM (active).

What about the GI50 (HCT-116) of the same compound?
Its GI50 is 0.104 µM (active).

What about the GI50 (SNB-75) of the same compound?
The GI50 was 1.75 µM (inactive).

What about the GI50 (MDA-MB-435) of the same compound?
The GI50 was 0.075 µM (active).

And the GI50 (HT-29)?
The GI50 was 0.412 µM (active).

And the GI50 (NCI-H226)?
The GI50 was 0.348 µM (active).

What about the GI50 (TK-10) of the same compound?
The GI50 was 1.66 µM (inactive).

What about the GI50 (A498) of the same compound?
The GI50 was < 0.01 µM (active).

And the GI50 (LOX IMVI)?
Its GI50 is 0.323 µM (active).

And the GI50 (HCT-15)?
Its GI50 is 294 nM.

And the GI50 (K562)?
The GI50 was 0.132 µM (active).

What about the GI50 (SN12C) of the same compound?
Its GI50 is 0.64 µM (active).

And the GI50 (SK-MEL-5)?
The GI50 was 0.466 µM (active).

And the GI50 (U-251)?
The GI50 was 0.473 µM (active).

What about the GI50 (T47D) of the same compound?
Its GI50 is 2.08 µM (inactive).

And the GI50 (SF-268)?
The GI50 was 0.593 µM (active).

And the GI50 (CCRF-CEM)?
Its GI50 is 0.329 µM (active).

And the GI50 (A549)?
Its GI50 is 0.412 µM (active).

What about the GI50 (IGROV-1) of the same compound?
Its GI50 is 0.284 µM (active).

What about the GI50 (UACC-257) of the same compound?
Its GI50 is 1.16 µM (inactive).

And the GI50 (UACC-62)?
Its GI50 is 0.282 µM (active).

And the GI50 (HCC 2998)?
The GI50 was 0.542 µM (active).

What about the GI50 (SK-MEL-2) of the same compound?
The GI50 was 1.24 µM (inactive).

And the GI50 (BT-549)?
Its GI50 is 0.593 µM (active).

And the GI50 (OVCAR-8)?
The GI50 was 0.376 µM (active).

And the GI50 (M14)?
Its GI50 is 0.298 µM (active).

What about the GI50 (SNB-19) of the same compound?
Its GI50 is 0.573 µM (active).

And the GI50 (HOP-92)?
Its GI50 is 1.46 µM (inactive).

What about the GI50 (SK-OV-3) of the same compound?
The GI50 was 0.817 µM (active).

What about the GI50 (OVCAR-3) of the same compound?
Its GI50 is 0.33 µM (active).

And the GI50 (UO-31)?
The GI50 was 0.53 µM (active).

And the GI50 (HL-60)?
Its GI50 is 0.213 µM (active).

What about the GI50 (SF-295) of the same compound?
The GI50 was 0.264 µM (active).

What about the GI50 (SF-539) of the same compound?
Its GI50 is 0.27 µM (active).

And the GI50 (MCF7)?
Its GI50 is 0.242 µM (active).

What about the GI50 (Hs-578T) of the same compound?
Its GI50 is 0.36 µM (active).

And the GI50 (DU-145)?
Its GI50 is 0.538 µM (active).

What about the GI50 (MDA-MB-231) of the same compound?
Its GI50 is 0.33 µM (active).

And the GI50 (HOP-62)?
The GI50 was 0.273 µM (active).

What about the GI50 (SK-MEL-28) of the same compound?
The GI50 was 0.94 µM (active).

And the GI50 (PC-3)?
The GI50 was 0.357 µM (active).

And the GI50 (EKVX)?
Its GI50 is 0.505 µM (active).

What about the GI50 (786-0) of the same compound?
The GI50 was 0.294 µM (active).

What about the GI50 (NCI-H460) of the same compound?
Its GI50 is 0.332 µM (active).

And the GI50 (MDA-N)?
The GI50 was 0.0748 µM (active).

And the GI50 (OVCAR-5)?
Its GI50 is 0.497 µM (active).

And the GI50 (RXF 393)?
Its GI50 is 0.22 µM (active).

And the GI50 (RPMI-8226)?
The GI50 was 0.376 µM (active).

And the GI50 (NCI/ADR-RES)?
The GI50 was 0.344 µM (active).

What about the GI50 (KM12) of the same compound?
The GI50 was 0.203 µM (active).

What about the GI50 (NCI-H23) of the same compound?
The GI50 was 0.382 µM (active).

And the GI50 (COLO 205)?
Its GI50 is 0.294 µM (active).
